# Test results reported in PubChem BioAssay (NCI).
#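 Cultured in 96-well plates, cells were exposed to test compound for 48 hours across five concentrations. GI50: concentration for 50% inhibition of growth. At the TGI there is no net growth.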
# Experiments:
# Experiment in all cases: NCI anticancer screen, dose series, 48 h
# HCC-2998 colon = test system: HCC-2998 colon
# NCI-H522 lung = test system: NCI-H522 lung
# LOX IMVI melanoma = test system: LOX IMVI melanoma
# MCF7 breast = test system: MCF7 breast
# SW-620 colon = test system: SW-620 colon
# NCI-H460 lung = test system: NCI-H460 lung
# IGROV1 ovarian = test system: IGROV1 ovarian
# U251 CNS = test system: U251 CNS
# SK-MEL-5 melanoma = test system: SK-MEL-5 melanoma
# SNB-19 CNS = test system: SNB-19 CNS
# HOP-92 NSCLC = test system: HOP-92 NSCLC
# OVCAR-4 ovarian = test system: OVCAR-4 ovarian
# UO-31 renal = test system: UO-31 renal
# NCI-H23 lung = test system: NCI-H23 lung
# HL-60(TB) leukemia = test system: HL-60(TB) leukemia
# A498 renal = test system: A498 renal
# MDA-MB-468 breast = test system: MDA-MB-468 breast
# NCI-H226 lung = test system: NCI-H226 lung
# HT29 colon = test system: HT29 colon
# CCRF-CEM leukemia = test system: CCRF-CEM leukemia
# SNB-75 CNS = test system: SNB-75 CNS
# MDA-MB-435 = test system: MDA-MB-435
# BT-549 breast = test system: BT-549 breast
# NCI/ADR-RES ovarian = test system: NCI/ADR-RES ovarian
# CAKI-1 renal = test system: CAKI-1 renal
# SN12C renal = test system: SN12C renal
# T-47D breast = test system: T-47D breast
# SF-268 CNS = test system: SF-268 CNS
# M14 melanoma = test system: M14 melanoma
structure (smiles),measurement,setting,value
Cc1ccc(Cl)cc1NC(=O)N/C(N)=N/c1nc2ccccc2s1,GI50,HCC-2998 colon,67.6 nM
same,TGI,HCC-2998 colon,1110 nM
same,GI50,NCI-H522 lung,24.7 nM
same,TGI,NCI-H522 lung,88.3 nM
same,GI50,LOX IMVI melanoma,61.9 nM
same,TGI,LOX IMVI melanoma,1520 nM
same,GI50,MCF7 breast,199 nM
same,TGI,MCF7 breast,11400 nM
same,GI50,SW-620 colon,44.5 nM
same,TGI,SW-620 colon,14400 nM
same,GI50,NCI-H460 lung,39.1 nM
same,TGI,NCI-H460 lung,1320 nM
same,GI50,IGROV1 ovarian,99.2 nM
same,TGI,IGROV1 ovarian,2860 nM
same,GI50,U251 CNS,37 nM
same,TGI,U251 CNS,3670 nM
same,GI50,SK-MEL-5 melanoma,33.2 nM
same,TGI,SK-MEL-5 melanoma,136 nM
same,GI50,SNB-19 CNS,66.5 nM
same,TGI,SNB-19 CNS,15200 nM
same,GI50,HOP-92 NSCLC,1170 nM
same,TGI,HOP-92 NSCLC,10900 nM
same,GI50,OVCAR-4 ovarian,1580 nM
same,TGI,OVCAR-4 ovarian,16300 nM
same,GI50,UO-31 renal,59.3 nM
same,TGI,UO-31 renal,10200 nM
same,GI50,NCI-H23 lung,45.2 nM
same,TGI,NCI-H23 lung,3570 nM
same,GI50,HL-60(TB) leukemia,30.9 nM
same,TGI,HL-60(TB) leukemia,843 nM
same,GI50,A498 renal,12400 nM
same,TGI,A498 renal,25800 nM
same,GI50,MDA-MB-468 breast,217 nM
same,TGI,MDA-MB-468 breast,650 nM
same,GI50,NCI-H226 lung,187 nM
same,TGI,NCI-H226 lung,2550 nM
same,GI50,HT29 colon,28.9 nM
same,TGI,HT29 colon,118 nM
same,GI50,CCRF-CEM leukemia,37.1 nM
same,TGI,CCRF-CEM leukemia,7470 nM
same,GI50,SNB-75 CNS,125 nM
same,TGI,SNB-75 CNS,9290 nM
same,GI50,MDA-MB-435,20.3 nM
same,TGI,MDA-MB-435,43.5 nM
same,GI50,BT-549 breast,183 nM
same,TGI,BT-549 breast,1370 nM
same,GI50,NCI/ADR-RES ovarian,23 nM
same,TGI,NCI/ADR-RES ovarian,54.9 nM
same,GI50,CAKI-1 renal,45.6 nM
same,TGI,CAKI-1 renal,6660 nM
same,GI50,SN12C renal,64.1 nM
same,TGI,SN12C renal,2440 nM
same,GI50,T-47D breast,1320 nM
same,TGI,T-47D breast,53200 nM
same,GI50,SF-268 CNS,493 nM
same,TGI,SF-268 CNS,26600 nM
same,GI50,M14 melanoma,25.6 nM
same,TGI,M14 melanoma,523 nM
